In PMC10572522, “A Designed Analog of an Antimicrobial Peptide, Crabrolin, Exhibits Enhanced Anti-Proliferative and In Vivo Antimicrobial Activity” (International Journal of Molecular Sciences, 2023):
Residues, ends and D or L forms follow the SMILES beside them.

How the values were obtained:
[1] = system: K. pneumoniae (ATCC 43816) biofilm; format: cell-based, Klebsiella pneumoniae; settings: for MBIC: biofilm inhibitory rate more than 90%; for MBEC: eradication rate greater than 99.9%
Description: To measure the antibiofilm activity of crabrolin and its derivatives, four drug-resistant biofilm-forming strains, MRSA (NCTC 12493), K. pneumoniae (ATCC 43816), E. faecium (NTCC-12697), and P. aeruginosa (ATCC 9027), were used in this assay. Tryptic soy broth (TSB) (for the Gram-positive bacteria) and Luria–Bertani broth (LB) (for the Gram-negative bacteria) were used to culture the bacteria.
The mass of the biofilm in this assay was detected by the crystal violet staining method. First, 100 μL of 5 × 10^5 CFU/mL bacteria was incubated with 1 μL of different peptide solutions (ranging from 51200 μM to 100 μM) for 24 h at 37 °C with 200 rpm shaking. After the biofilm formation, 100 μL of PBS was used to rinse the biofilm twice. Next, 100 µL of methanol was added to fix the biofilm, and the biofilm was then dried. Thereafter, 100 μL of 0.1% crystal violet was added and left to stain for 15 min, and then the excess crystal violet was further rinsed by PBS. After the plate had air-dried, 30% glacial acetic acid was added to each well of the plate, and the plate was shaken for 15 min before the optical density (OD) value was measured at 595 nm using a Synergy HT plate reader. The MBIC value refers to the minimum concentration at which the biofilm inhibitory rate was more than 90%.
Different from measuring the MBIC value, to determine the MBEC value, 100 μL of the bacteria was first added to 96-well plates. After the biofilm was formed, the biofilm was rinsed with PBS twice to remove the planktonic cells, and then different concentrations of the drugs were added to the biofilm (the same as the MBIC assay). The mixture was incubated at 37 °C with shaking at 200 rpm. After 24 h of incubation, the mass of the biofilm was measured in the same way as the MBIC value, and the minimum concentration at which the eradication rate was greater than 99.9% was considered to be the MBEC value.

[2] = system: human prostate carcinoma cell line PC-3; experiment: Anti-proliferative assay (MTT); format: cell-based; settings: PC3, MTT, 24 h
Description: (§1) The human non-small-cell lung cancer line, H838, the human prostate carcinoma cell line, PC-3, the human glioblastoma astrocytoma, U251MG, the human breast cancer cell line, MCF-7, the human colorectal carcinoma cell line, HCT116, and the human keratinocyte cell line, HaCaT, were used to detect the anti-proliferative effects of the crabrolin and its derivatives in vitro. A total of 8000 cells were seeded in each well of a 96-well plate. After the cells had adhered to the wall, the cells were starved for 4 h. After the starvation, the cells were incubated with different concentrations of the drugs, ranging from 100 µM to 1 nM, for 24 h, with 0.1% Triton X-100 used as a positive control. Next, 10 µL of MTT (3-(4,5-dimethylthiazol-2-yl)-2,5-diphenyltetrazolium bromide) solution (5 mg/mL) was added to each well of the 96-well plate. After 2 h of incubation, 100 μL of DMSO-superseded medium was added to each well to dissolve the formazan crystals. Finally, the absorbance was detected using a Synergy HT plate reader at 570 nm.

[3] = system: human glioblastoma astrocytoma U251MG; experiment: Anti-proliferative assay (MTT); format: cell-based; settings: 24 h
Description: as §1

[4] = system: human breast cancer cell line MCF-7; experiment: Anti-proliferative assay (MTT); format: cell-based; settings: MCF-7, MTT, 24 h
Description: as §1

[5] = system: human colorectal carcinoma cell line HCT-116; experiment: Anti-proliferative assay (MTT); format: cell-based; settings: HCT-116, MTT, 24 h
Description: as §1

[6] = system: human non-small-cell lung cancer line H838; experiment: Anti-proliferative assay (MTT); format: cell-based; settings: 24 h
Description: as §1

[7] = system: human keratinocyte cell line HaCaT; experiment: Anti-proliferative assay (MTT); format: cell-based; settings: HaCaT (normal keratinocytes), 24 h
Description: as §1

[8] = system: Galleria mellonella larvae; experiment: Toxicity to Galleria mellonella larvae without infection; format: in vivo; settings: highest dose (50 mg/kg)
MRSA (NCTC 12493) = experiment: Antimicrobial susceptibility assay (MIC/MBC); format: cell-based, methicillin-resistant Staphylococcus aureus; settings: for MIC: MHB, 37 °C, 20 h
Description: Six bacteria were tested in this experiment to detect the antimicrobial effects of crabrolin and its derivatives, including S. aureus (NCTC 10788), MRSA (NCTC 12493), E. coli (ATCC 8739), K. pneumoniae (ATCC 43816), E. faecium (NTCC-12697), and P. aeruginosa (ATCC 9027). The tested bacteria were cultured in Mueller Hinton broth medium (MHB) with norfloxacin (20 mg/L) as a positive control. All bacteria were incubated at 37 °C overnight and diluted to 5 × 10^5 CFU/mL before treating with the peptides. Stock solutions of 51,200 µM peptides were prepared in phosphate-buffered saline (PBS) and further diluted by a factor of two to 100 µM. Next, 1 µL of each peptide solution was mixed with 99 µL of bacterial subculture in a 96-well plate, and the plate was incubated at 37 °C for 20 h. After culturing, the absorbance of each well in the 96-well plate was analyzed at 550 nm using a Synergy HT plate reader (BioliseBioTek, Winooski, VT, USA). […] Starting with the MIC value, 10 µL of the solution from each well was dripped onto Mueller Hinton agar (MHA) plates. The plates were cultured at 37 °C for 20 h. After culturing, the lowest concentration with no colony growth was regarded as the MBC.

SMILES	MBIC [1]	MBEC [1]	IC50 [2] [µM]	IC50 [3] [µM]	IC50 [4] [µM]	IC50 [5] [µM]	IC50 [6] [µM]	IC50 [7] [µM]	Death of healthy larvae [8]	MBC (MRSA (NCTC 12493)) [µM]	MIC (MRSA (NCTC 12493)) [µM]	MIC (MRSA (NCTC 12493); listed as crabrolin) [µM]	IC50 ([2]; listed as crabrolin-TR) [µM]	IC50 ([3]; listed as crabrolin-TR) [µM]	IC50 ([4]; listed as crabrolin-TR) [µM]	IC50 ([6]; listed as crabrolin-TR) [µM]
CC[C@H](C)[C@H](NC(=O)[C@H](CC(C)C)NC(=O)[C@@H]1CCCN1C(=O)[C@H](CC(C)C)NC(=O)[C@@H](N)Cc1ccccc1)C(=O)N[C@@H](CC(C)C)C(=O)N[C@@H](CCCNC(=N)N)C(=O)N[C@@H](CCCCN)C(=O)N[C@H](C(=O)N[C@H](C(=O)N[C@H](C(=O)N[C@@H](C)C(=O)N[C@@H](CC(C)C)C(N)=O)[C@@H](C)O)C(C)C)[C@@H](C)CC [Crabrolin, FLPLILRKIVTAL-NH2] (H-FLPLILRKIVTAL-NH2)	>512/>512 µM	>512/>512 µM	32.1	20.1	26.5	8.54	27.7	31.2	did not result in the death of healthy larvae	8	4	8				
CC[C@H](C)[C@H](NC(=O)[C@H](CCCNC(=N)N)NC(=O)[C@@H]1CCCN1C(=O)[C@H](CC(C)C)NC(=O)[C@@H](N)Cc1ccccc1)C(=O)N[C@@H](CC(C)C)C(=O)N[C@@H](CCCNC(=N)N)C(=O)N[C@@H](CCCCN)C(=O)N[C@H](C(=O)N[C@H](C(=O)N[C@@H](CCCNC(=N)N)C(=O)N[C@@H](C)C(=O)N[C@@H](CC(C)C)C(N)=O)C(C)C)[C@@H](C)CC [Crabrolin-TR, FLPRILRKIVRAL-NH2] (H-FLPRILRKIVRAL-NH2)	8 µM	128 µM	3.94	12.4	3.46	2.81	4.64	20.9	did not result in the death of healthy larvae	2	2		< 10	> 10	< 10	< 10
